Test results reported in publication PMC8791529, “Schistosoma mansoni α-N-acetylgalactosaminidase (SmNAGAL) regulates coordinated parasite movement and egg production” (PLoS Pathogens, 2022).

Biological target: T1, SmNAGAL (Smp_089290) (Schistosoma mansoni, UniProt A0A8F5XXF6)
T1 construct: gene NAGAL; native enzyme in soluble worm antigen preparation (SWAP) of adult worms, not purified; assigned by siRNA knockdown
Assay: colorimetric hydrolysis at […] nm in worm extract, with siRNA knockdown
Assay type: biochemical
Conditions: 0.15 M McIlvaine buffer pH 4.6, 37 °C, 60 min; SWAP of siLuc and siSmp_089290 worms

`CC(=O)N[C@H]1[C@@H](Oc2ccc([N+](=O)[O-])cc2)O[C@H](CO)[C@H](O)[C@@H]1O` [4-Nitrophenyl N-acetyl-α-D-galactosaminide] was tested, and the “colorimetric hydrolysis at 410 nm in worm extract, with siRNA knockdown” value was “smnagal depletion in siRNA-treated worms significantly reduced α-NAGAL activity in SWAP”.
